According to patent publication US10669290B2, “Beta-lactamase inhibitors” (priority 2012, dated 2020):
Blank lines part the entries; values can stand above or below the compound they belong to.

How the values were obtained:
Type in all cases: cell-based
[1] = system: K.P. A-1797 KPC-2 VIM-4; test: Broth microdilution MIC, K. pneumoniae A-1797; settings: Klebsiella pneumoniae; fixed meropenem 4 μg/mL, CAMHB, 16-20 hours 37° C.; read-out: MIC of exemplary compounds in presence of fixed β-lactams, Fixed Mero, K.P. A-1797 KPC-2 VIM-4
[2] = system: E. coli ESBL4 CTX-M-15; test: Broth microdilution MIC, E. coli ESBL4; settings: Escherichia coli, ESBL4CTXM15; fixed ceftazidime 4 μg/mL, CAMHB, 16-20 hours 37° C.; read-out: MIC of exemplary compounds in presence of fixed β-lactams, Fixed CAZ, E. coli ESBL4 CTX-M-15
Procedure, shortened: (§1)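 Test compound was 2-fold serially diluted in cation-adjusted Mueller Hinton broth (final 32 to 0.25 μg/mL) under a fixed β-lactam overlay at 4 μg/ml. Plates were inoculated per CLSI broth microdilution with 3-5 h cultures, incubated 16-20 hours at 37° C, and MIC was read visually.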

[3] = system: P. aerug. Ps296 VIM-2; test: Broth microdilution MIC, P. aeruginosa Ps296; settings: Pseudomonas aeruginosa; fixed meropenem 4 μg/mL, CAMHB, 16-20 hours 37° C.; read-out: MIC of exemplary compounds in presence of fixed β-lactams, Fixed Mero, P. aerug. Ps296 VIM-2
Procedure, shortened: as §1

[4] = system: S. aureus MSSA-7 PC-1; test: Broth microdilution MIC, S. aureus MSSA-7; settings: Staphylococcus aureus, fixed piperacillin 4 μg/mL, CAMHB, 16-20 hours 37° C., read-out: MIC of exemplary compounds in presence of fixed β-lactams, Fixed Pip, S. aureus MSSA-7 PC-1
[5] = system: K.P. 156319 KPC-3; test: Broth microdilution MIC, K. pneumoniae 156319; settings: Klebsiella pneumoniae; fixed meropenem 4 μg/mL, CAMHB, 16-20 hours 37° C.; read-out: MIC of exemplary compounds in presence of fixed β-lactams, Fixed Mero, K.P. 156319 KPC-3
[6] = system: E. cl 144200 p99 AmpC; test: Broth microdilution MIC, E. cloacae 144200; settings: Enterobacter cloacae; fixed ceftazidime 4 μg/mL, CAMHB, 16-20 hours 37° C.; read-out: MIC of exemplary compounds in presence of fixed β-lactams, Fixed CAZ, E. cl 144200 p99 AmpC
Procedure, shortened: as §1

MIC [1]: < 4 µg/mL | MIC [2]: < 4 µg/mL | MIC [3]: 8 to 32 µg/mL | MIC [4]: < 4 µg/mL | MIC [5]: < 4 µg/mL | MIC [6]: < 4 µg/mL
Structure (SMILES): C[C@H](N)CNCCN[C@H]1CC[C@H](CC(=O)N[C@H]2Cc3cccc(C(=O)O)c3OB2O)CC1 [Example 62, (R)-3-(2-(trans-4-(2-((S)-2-aminopropylamino)ethylamino)cyclohexyl)acetamido)-2-hydroxy-3,4-dihydro-2H-benzo[e][1,2]oxaborinine-8-carboxylic acid]

MIC [1]: < 4 µg/mL | MIC [2]: < 4 µg/mL | MIC [3]: < 4 µg/mL | MIC [4]: < 4 µg/mL | MIC [5]: < 4 µg/mL | MIC [6]: < 4 µg/mL
Structure (SMILES): CNCCN[C@H]1CC[C@H](C(CO)C(=O)N[C@H]2Cc3cccc(C(=O)O)c3OB2O)CC1 (stereo partly drawn) [Example 64, (R)-2-hydroxy-3-(3-hydroxy-2-(trans-4-(2-(methylamino)ethylamino)cyclohexyl)propanamido)-3,4-dihydro-2H-benzo[e][1,2]oxaborinine-8-carboxylic acid]

MIC [1]: < 4 µg/mL | MIC [2]: < 4 µg/mL | MIC [3]: 8 to 32 µg/mL | MIC [4]: < 4 µg/mL | MIC [5]: < 4 µg/mL | MIC [6]: < 4 µg/mL
Structure (SMILES): N[C@@H](CO)CN[C@H]1CC[C@H](CC(=O)N[C@H]2Cc3cccc(C(=O)O)c3OB2O)CC1 [Example 65, (R)-3-(2-(trans-4-((R)-2-amino-3-hydroxypropylamino)cyclohexyl)acetamido)-2-hydroxy-3,4-dihydro-2H-benzol[e][1,2]oxaborinine-8-carboxylic acid]

MIC [1]: < 4 µg/mL | MIC [2]: < 4 µg/mL | MIC [3]: < 4 µg/mL | MIC [4]: < 4 µg/mL | MIC [5]: < 4 µg/mL | MIC [6]: < 4 µg/mL
Structure (SMILES): N[C@H](CO)CN[C@H]1CC[C@H](CC(=O)N[C@H]2Cc3cccc(C(=O)O)c3OB2O)CC1 [Example 67, (R)-3-(2-(trans-4-((S)-2-amino-3-hydroxypropylamino)cyclohexyl)acetamido)-2-hydroxy-3,4-dihydro-2H-benzol[e][1,2]oxaborinine-8-carboxylic acid]

MIC [1]: < 4 µg/mL | MIC [2]: < 4 µg/mL | MIC [3]: < 4 µg/mL | MIC [4]: < 4 µg/mL | MIC [5]: < 4 µg/mL | MIC [6]: < 4 µg/mL
Structure (SMILES): CC(C)NCCN[C@H]1CC[C@H](CC(=O)N[C@H]2Cc3cccc(C(=O)O)c3OB2O)CC1 [Example 71, (R)-2-hydroxy-3-(2-(trans-4-(2-(isopropylamino)ethylamino)cyclohexyl)acetamido)-3,4-dihydro-2H-benzo[e][1,2]oxaborinine-8-carboxylic acid]

MIC [1]: < 4 µg/mL | MIC [2]: < 4 µg/mL | MIC [3]: < 4 µg/mL | MIC [4]: < 4 µg/mL | MIC [5]: < 4 µg/mL | MIC [6]: < 4 µg/mL
Structure (SMILES): CCNCCN[C@H]1CC[C@H](CC(=O)N[C@H]2Cc3cccc(C(=O)O)c3OB2O)CC1 [Example 78, (R)-3-(2-(trans-4-(2-(ethylamino)ethylamino)cyclohexyl)acetamido)-2-hydroxy-3,4-dihydro-2H-benzo[e][1,2]oxaborinine-8-carboxylic acid]

Further lines, the compound ahead of its results:

Structure (SMILES): CN(CCN)[C@H]1CC[C@H](CC(=O)N[C@H]2Cc3cccc(C(=O)O)c3OB2O)CC1 [Example 63, (R)-3-(2-(trans-4-((2-aminoethyl)(methyl)amino)cyclohexyl)acetamido)-2-hydroxy-3,4-dihydro-2H-benzo[e][1,2]oxaborinine-8-carboxylic acid]
MIC [1]: < 4 µg/mL | MIC [2]: < 4 µg/mL | MIC [3]: < 4 µg/mL | MIC [4]: < 4 µg/mL | MIC [5]: < 4 µg/mL | MIC [6]: < 4 µg/mL

Structure (SMILES): CSCCN[C@H]1CC[C@H](CC(=O)N[C@H]2Cc3cccc(C(=O)O)c3OB2O)CC1 [Example 66, (R)-2-hydroxy-3-(2-(trans-4-(2-(methylthio)ethylamino)cyclohexyl)acetamido)-3,4-dihydro-2H-benzo[e][1,2]oxaborinine-8-carboxylic acid]
MIC [1]: 8 to 32 µg/mL | MIC [2]: < 4 µg/mL | MIC [3]: 8 to 32 µg/mL | MIC [4]: < 4 µg/mL | MIC [5]: < 4 µg/mL | MIC [6]: < 4 µg/mL

Structure (SMILES): NCC(=O)N[C@H]1CC[C@H](CC(=O)N[C@H]2Cc3cccc(C(=O)O)c3OB2O)CC1 [Example 68, (R)-3-(2-(trans-4-(2-aminoacetamido)cyclohexyl)acetamido)-2-hydroxy-3,4-dihydro-2H-benzol[e][1,2]oxaborinine-8-carboxylic acid]
MIC [1]: 8 to 32 µg/mL | MIC [2]: < 4 µg/mL | MIC [3]: 8 to 32 µg/mL | MIC [4]: < 4 µg/mL | MIC [5]: < 4 µg/mL | MIC [6]: < 4 µg/mL

Structure (SMILES): O=C(C[C@H]1CC[C@H](N(Cc2ncc[nH]2)Cc2ncc[nH]2)CC1)N[C@H]1Cc2cccc(C(=O)O)c2OB1O [Example 69, (R)-3-(2-(trans-4-(bis((1H-imidazol-2-yl)methyl)amino)cyclohexyl)acetamido)-2-hydroxy-3,4-dihydro-2H-benzo[e][1,2]oxaborinine-8-carboxylic acid]
MIC [1]: > 32 µg/mL | MIC [2]: < 4 µg/mL | MIC [3]: < 4 µg/mL | MIC [4]: < 4 µg/mL | MIC [5]: < 4 µg/mL | MIC [6]: < 4 µg/mL

Structure (SMILES): O=C(C[C@H]1CC[C@H](NCc2cnc[nH]2)CC1)N[C@H]1Cc2cccc(C(=O)O)c2OB1O [Example 70, (R)-3-(2-(trans-4-((1H-imidazol-5-yl)methylamino)cyclohexyl)acetamido)-2-hydroxy-3,4-dihydro-2H-benzo[e][1,2]oxaborinine-8-carboxylic acid]
MIC [1]: 8 to 32 µg/mL | MIC [2]: < 4 µg/mL | MIC [3]: < 4 µg/mL | MIC [4]: < 4 µg/mL | MIC [5]: < 4 µg/mL | MIC [6]: < 4 µg/mL

Structure (SMILES): O=C(C[C@H]1CC[C@H](NCCNc2ncccn2)CC1)N[C@H]1Cc2cccc(C(=O)O)c2OB1O [Example 72]
MIC [1]: 8 to 32 µg/mL | MIC [2]: < 4 µg/mL | MIC [3]: < 4 µg/mL | MIC [4]: < 4 µg/mL | MIC [5]: < 4 µg/mL | MIC [6]: < 4 µg/mL

Structure (SMILES): O=C(C[C@H]1CC[C@H](NCCNC2CCCC2)CC1)N[C@H]1Cc2cccc(C(=O)O)c2OB1O [Example 73, (R)-3-(2-(trans-4-(2-(cyclopentylamino)ethylamino)cyclohexyl)acetamido)-2-hydroxy-3,4-dihydro-2H-benzo[e][1,2]oxaborinine-8-carboxylic acid]
MIC [1]: < 4 µg/mL | MIC [2]: < 4 µg/mL | MIC [3]: < 4 µg/mL | MIC [4]: < 4 µg/mL | MIC [5]: < 4 µg/mL | MIC [6]: < 4 µg/mL

Structure (SMILES): O=C(C[C@H]1CC[C@H](NCCNCC2CC2)CC1)N[C@H]1Cc2cccc(C(=O)O)c2OB1O [Example 74, (R)-3-(2-(trans-4-(2-(cyclopropylmethylamino)ethylamino)cyclohexyl)acetamido)-2-hydroxy-3,4-dihydro-2H-benzo[e][1,2]oxaborinine-8-carboxylic acid]
MIC [1]: < 4 µg/mL | MIC [2]: < 4 µg/mL | MIC [3]: < 4 µg/mL | MIC [4]: < 4 µg/mL | MIC [5]: < 4 µg/mL | MIC [6]: < 4 µg/mL

Structure (SMILES): O=C(C[C@H]1CC[C@H](NCCN(CC2CC2)CC2CC2)CC1)N[C@H]1Cc2cccc(C(=O)O)c2OB1O [Example 75, (R)-3-(2-(trans-4-(2-(bis(cyclopropylmethyl)amino)ethylamino)cyclohexyl)acetamido)-2-hydroxy-3,4-dihydro-2H-benzo[e][1,2]oxaborinine-8-carboxylic acid]
MIC [1]: < 4 µg/mL | MIC [2]: < 4 µg/mL | MIC [3]: < 4 µg/mL | MIC [4]: < 4 µg/mL | MIC [5]: < 4 µg/mL | MIC [6]: < 4 µg/mL

Structure (SMILES): NCCC(N)[C@H]1CC[C@H](CC(=O)N[C@H]2Cc3cccc(C(=O)O)c3OB2O)CC1 (stereo partly drawn) [Example 76, (R)-3-(2-(trans-4-(1,3-diaminopropyl)cyclohexyl)acetamido)-2-hydroxy-3,4-dihydro-2H-benzo[e][1,2]oxaborinine-8-carboxylic acid]
MIC [1]: < 4 µg/mL | MIC [2]: < 4 µg/mL | MIC [3]: 8 to 32 µg/mL | MIC [4]: < 4 µg/mL | MIC [5]: < 4 µg/mL | MIC [6]: < 4 µg/mL

Structure (SMILES): NCC(N)[C@H]1CC[C@H](CC(=O)N[C@H]2Cc3cccc(C(=O)O)c3OB2O)CC1 (stereo partly drawn) [Example 77, (R)-3-(2-(trans-4-(1,2-diaminoethyl)cyclohexyl)acetamido)-2-hydroxy-3,4-dihydro-2H-benzo[e][1,2]oxaborinine-8-carboxylic acid]
MIC [1]: 8 to 32 µg/mL | MIC [2]: < 4 µg/mL | MIC [3]: < 4 µg/mL | MIC [4]: < 4 µg/mL | MIC [5]: < 4 µg/mL | MIC [6]: < 4 µg/mL

Structure (SMILES): CN(C)CCN[C@H]1CC[C@H](CC(=O)N[C@H]2Cc3cccc(C(=O)O)c3OB2O)CC1 [Example 79, (R)-3-(2-(trans-4-(2-(dimethylamino)ethylamino)cyclohexyl)acetamido)-2-hydroxy-3,4-dihydro-2H-benzo[e][1,2]oxaborinine-8-carboxylic acid]
MIC [1]: < 4 µg/mL | MIC [2]: < 4 µg/mL | MIC [3]: < 4 µg/mL | MIC [4]: < 4 µg/mL | MIC [5]: < 4 µg/mL | MIC [6]: < 4 µg/mL
